The source of these data is patent US11766414B2, “Compositions, delivery systems, and methods useful in tumor therapy” (Indi Molecular, Inc., priority 2020, dated 2023).

The structures appear in SMILES notation. Where two headings read alike, the source gives them in different places. Starred links: 1 amine or outer side, 2 acyl side, 3 side chain; linkers in the order of their positions; H or OH if unused. Positions of bridges follow the written chain, without caps; N, C: chain ends. Non-standard residues stand in square brackets, D forms with d. Residues, ends and D or L forms follow the SMILES beside them. Triazole bridges read from a SMILES are 1,4-linked. *: point of attachment. DOTA = O=C(O)CN1CCN(CC(=O)O)CCN(CC(=O)*)CCN(CC(=O)O)CC1; Pteroyl = Nc1nc2ncc(CNc3ccc(C(=O)*)cc3)nc2c(=O)[nH]1; Biotin = O=C1N[C@H]2[C@H](CS[C@H]2CCCCC(=O)*)N1; PEG10 = NCCOCCOCCOCCOCCOCCOCCOCCOCCOCCOCCC(=O)O; Butanoyl(4-(4-MePh)) = Cc1ccc(CCCC(=O)*)cc1; Lys(N3) = [N-]=[N+]=NCCCC[C@H](N)C(=O)O; γGlu = O=C(O)[C@H](CCC(=O)[*:2])N[*:1]; PEG7 = NCCOCCOCCOCCOCCOCCOCCOCCC(=O)O; AEEEA = NCCOCCOCCOCC(=O)O; Pra = C#CC[C@H](N)C(=O)O; X1 = NOCC(=O)*

The nature of series [1]: Plasma protein binding, human plasma. The class given is in vitro ADME. The procedure: (§1) HTD 96 a/b regenerated cellulose membrane strips with mass cutoff of 12-14 kDa were soaked in ultra-pure water at room temperature for 1 hour. Each swelled membrane was then soaked in 20:80 ethanol:water for 20 minutes.
(§2) Just prior to the experiment, the membranes were re-soaked in ultra-pure water. Plasma was prepared by thawing under cold water. The plasma was centrifuged to remove any clots and pH was adjusted to 7.0-8.0. Test articles and control compounds were diluted to 2 μM. The dialysis device was loaded by transferring 150 μL of the test article (in triplicate) to the donor side. The dialysis device was placed in a humidified incubator at 37° C. with 5% CO2 in a shaking platform that rotated slowly for 4 hours. After incubation, 50 μL of the supernatant was taken from both sides and analyzed by LC-MS/MS.

Series [2] in a line: Plasma protein binding, CD-1 mouse plasma. The series is classed as in vitro ADME. The protocol:
as §1, §2

For a further series, the target named is FOLR1 (Homo sapiens, UniProt P15328). In words: ELISA assay of FOLR1 binding. The source says: FIG. 5 is a diagram of ELISA assay of FOLR1 binding of heterobiligands.
FOLR1, sequence (P15328 25-234): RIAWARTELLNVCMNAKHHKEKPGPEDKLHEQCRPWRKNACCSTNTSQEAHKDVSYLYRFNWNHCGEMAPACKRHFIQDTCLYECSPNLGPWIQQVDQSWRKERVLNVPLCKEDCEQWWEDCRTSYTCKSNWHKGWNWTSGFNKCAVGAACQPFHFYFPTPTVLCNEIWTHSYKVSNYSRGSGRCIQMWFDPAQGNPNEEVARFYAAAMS
Another series concerns the target human recombinant NEP (Homo sapiens, UniProt P08473). In words: NEP enzymatic cleavage assay (MALDI, HPLC). The series is classed as biochemical. As to conditions: for NEP-mediated cleavage: MALDI. The procedure:
In order to test the susceptibility of GFK and MVK linkers to NEP-mediated cleavage, the peptide (Folate-hshta-Lys(MPBA)-Gly-Phe-Lys(DOTA) (SEQ ID NO:6)) was incubated with human recombinant NEP and analyzed the solution for the presence of cleaved adducts. MALDI was utilized to monitor the cleavage of a PCC heterobiligand that contains a NEP protease recognizable sequence (G-F-K). The PCC concentration was constant and the NEP concentration was titrated down from 10 nM to 1 nM, 0.1 nM, 0.01 nM, and no NEP. The NEP-mediated cleaved adduct was identified by mass. 10 μM PCC containing the GFK linker was combined with varying amounts of NEP. […] Below 0.1 nM no cleavage was observed. • Folate-hshta-Lys(MPBA)-Gly-Phe-Lys(DOTA) (SEQ ID NO:6) • Molecular weight 2231.42
The NEP-mediated cleavage was also monitored by HPLC. In agreement with the MALDI spectra, the HPLC chromatograms show depletion of the parent brush-border heterobiligand (retention time 17.1 minutes), dose-dependent on the amount of NEP spiked into the sample (10 nM, 1 nM, 0.1 nM, 0.01 nM, and no NEP). An appearance of a new peak (retention time 16.5 minutes) in concert with the depletion of the starting material is presumed to be the cleaved folate-containing peptide.
In order to test the specificity of NEP, a non-cleavable linker (PEG3) was also assayed.
To reduce the radioactive dose to the kidney, Indi ^177Lu-7327 was constructed to incorporate a GFK linker that is susceptible to cleavage by enzymes found predominately in the kidney's brush border. These enzymes cleave off the radionuclide-chelator complex, which is quickly eliminated by the kidney for excretion in the urine. The zinc metalloprotease neprilysin (NEP) is expressed with high abundance in the kidney. […] To confirm NEP-mediated cleavage of the GFK linker in Indi 7327, the peptide was incubated with recombinant human NEP at 37° C. for 1 h and analyzed by matrix-assisted laser desorption/ionization mass spectrometry (MALDI-MS) for the evolution of cleaved adducts (FIG. 42). […] The expected cleaved adduct (mass: 1283.16 m/z) appears in the samples containing 10, 1.0, and 0.1 nM NEP. […] Below 0.1 nM NEP, no cleavage was observed. In addition to confirming the selectivity of NEP for the GFK linker, it is also important to note that the remaining portions of the Indi 7327 were impervious to the enzyme.

human recombinant NEP, sequence (P08473 whole entry): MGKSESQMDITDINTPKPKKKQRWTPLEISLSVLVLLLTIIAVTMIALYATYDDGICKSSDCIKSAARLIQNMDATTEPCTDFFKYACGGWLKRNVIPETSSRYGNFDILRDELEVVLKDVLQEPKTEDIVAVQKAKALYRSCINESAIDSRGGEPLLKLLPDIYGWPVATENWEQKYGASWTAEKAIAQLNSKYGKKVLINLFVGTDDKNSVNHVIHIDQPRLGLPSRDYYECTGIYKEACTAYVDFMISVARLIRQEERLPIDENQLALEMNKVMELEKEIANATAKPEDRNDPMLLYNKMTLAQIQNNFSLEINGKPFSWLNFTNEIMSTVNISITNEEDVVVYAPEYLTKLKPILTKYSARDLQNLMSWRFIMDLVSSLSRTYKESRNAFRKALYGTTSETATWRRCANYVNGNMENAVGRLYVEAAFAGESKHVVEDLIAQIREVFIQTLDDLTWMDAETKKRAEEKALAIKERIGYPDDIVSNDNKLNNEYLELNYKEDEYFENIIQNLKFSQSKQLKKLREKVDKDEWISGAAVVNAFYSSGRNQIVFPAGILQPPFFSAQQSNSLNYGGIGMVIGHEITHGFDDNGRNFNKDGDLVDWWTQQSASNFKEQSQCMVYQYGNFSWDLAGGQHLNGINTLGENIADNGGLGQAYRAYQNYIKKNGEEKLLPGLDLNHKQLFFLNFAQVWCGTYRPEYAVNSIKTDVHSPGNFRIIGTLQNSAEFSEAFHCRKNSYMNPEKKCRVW

As for `C[C@H](O)[C@H]1NC(=O)[C@@H](Cc2cnc[nH]2)NC(=O)[C@@H](CO)NC(=O)[C@@H](Cc2cnc[nH]2)NC(=O)[C@@H](NC(=O)CC[C@H](NC(=O)c2ccc(NCc3cnc4nc(N)[nH]c(=O)c4n3)cc2)C(=O)O)Cc2cn(nn2)CCCC[C@@H](C(=O)NCCOCCOCCOCC(=O)N[C@@H](CCCCNC(=O)CON)C(N)=O)NC(=O)[C@@H](C)NC1=O` [compound 0328, Fol-hshta-PEG3-Lys(AO)] ({Pteroyl-γGlu}-[Pra][dH][dS][dH][dT][dA][Lys(N3)][AEEEA]K(X1)-NH2; triazole 1-7), the fraction unbound at 4 h, 2 μM in series [1] (human, plasma, AO-containing constructs, (FB), read-out: Plasma % Bound, Hu) came to 0.57; in series [2] (CD-1, mouse, plasma, AO-containing constructs, (FB), read-out: Plasma % Bound, Mu) it was 0.798. The recovery at 4 h, 2 μM in series [1] (human, plasma, AO-containing constructs, (FB), read-out: Plasma protein binding % Recovery, Hu) is 85%; in series [2] (CD-1, mouse, plasma, AO-containing constructs, (FB), read-out: Plasma protein binding % Recovery, Mu), 115%.
As for `C[C@H](O)[C@H]1NC(=O)[C@@H](Cc2ccc(O)cc2)NC(=O)[C@@H](CCCNC(=N)N)NC(=O)[C@@H](CCC(=O)O)NC(=O)[C@@H](CC(=O)O)NC(=O)[C@@H](NC(=O)COCCOCCOCCNC(=O)CCCC[C@@H]2SC[C@@H]3NC(=O)N[C@@H]32)Cc2cn(nn2)CCCC[C@@H](C(N)=O)NC1=O` [deryt] ({Biotin-AEEEA}-[Pra][dD][dE][dR][dY][dT][Lys(N3)]-NH2; triazole 1-7), the concentration for a half-maximal effect (EC50) on FOLR1 (PCC alone, read-out: EC50) was 10000 nM.
For the molecule `C[C@H](O)[C@H]1NC(=O)[C@@H](Cc2c[nH]cn2)NC(=O)[C@@H](CO)NC(=O)[C@@H](Cc2c[nH]cn2)NC(=O)[C@@H](NC(=O)CNC(=O)CC[C@H](NC(=O)c2ccc(NCc3cnc4nc(N)[nH]c(=O)c4n3)cc2)C(=O)O)Cc2cn(nn2)CCCC[C@@H](C(=O)NCCOCCOCCOCCOCCOCCOCCOCCOCCOCCOCCC(=O)NCCOCCOCCOCCOCCOCCOCCOCCOCCOCCOCCC(=O)N[C@@H](CCCCNC(=O)CCCC[C@@H]2SC[C@@H]3NC(=O)N[C@@H]32)C(N)=O)NC(=O)[C@@H](C)NC1=O` [Folate-Gly-hshta] ({Pteroyl-γGlu}-G[Pra][dH][dS][dH][dT][dA][Lys(N3)][PEG10][PEG10]K(Biotin)-NH2; triazole 2-8), at FOLR1 (read-out: EC50 (ELISA, FOLR1)), the half-maximal effective concentration (EC50) was determined as 0.9 nM.
In the case of `Cc1ccc(CCCC(=O)NCCCC[C@H](NC(=O)[C@@H]2CCCCn3cc(nn3)C[C@H](NC(=O)CC[C@H](NC(=O)c3ccc(NCc4cnc5nc(N)[nH]c(=O)c5n4)cc3)C(=O)O)C(=O)N[C@H](Cc3cnc[nH]3)C(=O)N[C@H](CO)C(=O)N[C@H](Cc3cnc[nH]3)C(=O)N[C@H]([C@H](C)O)C(=O)N[C@H](C)C(=O)N2)C(=O)NCC(=O)N[C@@H](Cc2ccccc2)C(=O)N[C@@H](CCCCNC(=O)CON)C(=O)O)cc1` [compound 3304, Fol-hshta-Lys(4-MPBA)-Gly-Phe-Lys(AO)] ({Pteroyl-γGlu}-[Pra][dH][dS][dH][dT][dA][Lys(N3)]K(Butanoyl(4-(4-MePh)))GFK(X1)-OH; triazole 1-7), the “in vitro Assay Data (NEP assay)” value at human recombinant NEP (Table 7, AO-containing constructs) is “Cleavage of —G—F—K-”.
Turning to `C[C@H](O)[C@H]1NC(=O)[C@@H](Cc2ccc(O)cc2)NC(=O)[C@@H](CCCNC(=N)N)NC(=O)[C@@H](CCC(=O)O)NC(=O)[C@@H](CC(=O)O)NC(=O)[C@@H](NC(=O)[C@H](Cc2cn(CCOCCOCCOCCNC(=O)CC[C@H](NC(=O)c3ccc(NCc4cnc5nc(N)[nH]c(=O)c5n4)cc3)C(=O)O)nn2)NC(=O)CCOCCOCCOCCOCCOCCOCCOCCOCCOCCOCCNC(=O)CCOCCOCCOCCOCCOCCOCCOCCOCCOCCOCCNC(=O)CCCC[C@@H]2SC[C@@H]3NC(=O)N[C@@H]32)Cc2cn(nn2)CCCC[C@@H](C(N)=O)NC1=O` [Pra(Az4-PEG3-folate)-deryt], the EC50 at FOLR1 (read-out: EC50 (ELISA, FOLR1)) came out at 0.27 nM.
For the molecule `C[C@H](O)[C@H]1NC(=O)[C@@H](Cc2c[nH]cn2)NC(=O)[C@@H](CO)NC(=O)[C@@H](Cc2c[nH]cn2)NC(=O)[C@@H](NC(=O)CC[C@H](NC(=O)c2ccc(NCc3cnc4nc(N)[nH]c(=O)c4n3)cc2)C(=O)O)Cc2cn(nn2)CCCC[C@@H](C(=O)NCCOCCOCCOCC(=O)N[C@@H](CCCCNC(=O)CN2CCN(CC(=O)O)CCN(CC(=O)O)CCN(CC(=O)O)CC2)C(N)=O)NC(=O)[C@@H](C)NC1=O` [compound 1189, Fol-hshta-PEG3-Lys(DOTA)] ({Pteroyl-γGlu}-[Pra][dH][dS][dH][dT][dA][Lys(N3)][AEEEA]K(DOTA)-NH2; triazole 1-7), the recovery is 102% in series [1] (human plasma, read-out: Plasma protein binding % Recovery, Hu) and 97.4% in series [2] (CD-1 mouse plasma, read-out: Plasma protein binding % Recovery, Mu). The fraction unbound in series [1] (human, plasma, human plasma, read-out: Plasma % Bound, Hu (converted)) is 0.54; in series [2] (CD-1 mouse plasma, read-out: Plasma % Bound, Mu (converted)), 0.705.
With `C[C@H](O)[C@H]1NC(=O)[C@@H](Cc2c[nH]cn2)NC(=O)[C@@H](CO)NC(=O)[C@@H](Cc2c[nH]cn2)NC(=O)[C@@H](NC(=O)CCOCCOCCOCCOCCOCCOCCOCCNC(=O)CC[C@H](NC(=O)c2ccc(NCc3cnc4nc(N)[nH]c(=O)c4n3)cc2)C(=O)O)Cc2cn(nn2)CCCC[C@@H](C(=O)NCCOCCOCCOCCOCCOCCOCCOCCOCCOCCOCCC(=O)NCCOCCOCCOCCOCCOCCOCCOCCOCCOCCOCCC(=O)N[C@@H](CCCCNC(=O)CCCC[C@@H]2SC[C@@H]3NC(=O)N[C@@H]32)C(N)=O)NC(=O)[C@@H](C)NC1=O` [Folate-PEG7-hshta] ({Pteroyl-γGlu-PEG7}-[Pra][dH][dS][dH][dT][dA][Lys(N3)][PEG10][PEG10]K(Biotin)-NH2; triazole 1-7), on FOLR1 (read-out: EC50 (ELISA, FOLR1)), the EC50 worked out at 1 nM.
On the same count and under the same terms, the value for `C[C@H](O)[C@H]1NC(=O)[C@@H](Cc2c[nH]cn2)NC(=O)[C@@H](CO)NC(=O)[C@@H](Cc2c[nH]cn2)NC(=O)[C@@H](NC(=O)[C@H]2CCCN2C(=O)CC[C@H](NC(=O)c2ccc(NCc3cnc4nc(N)[nH]c(=O)c4n3)cc2)C(=O)O)Cc2cn(nn2)CCCC[C@@H](C(=O)NCCOCCOCCOCCOCCOCCOCCOCCOCCOCCOCCC(=O)NCCOCCOCCOCCOCCOCCOCCOCCOCCOCCOCCC(=O)N[C@@H](CCCCNC(=O)CCCC[C@@H]2SC[C@@H]3NC(=O)N[C@@H]32)C(N)=O)NC(=O)[C@@H](C)NC1=O` [Folate-Pro-hshta] ({Pteroyl-γGlu}-[dP][Pra][dH][dS][dH][dT][dA][Lys(N3)][PEG10][PEG10]K(Biotin)-NH2; triazole 2-8) was 0.9 nM.
With `C[C@H](O)[C@H]1NC(=O)[C@@H](Cc2c[nH]cn2)NC(=O)[C@@H](CO)NC(=O)[C@@H](Cc2c[nH]cn2)NC(=O)[C@@H](NC(=O)CC[C@H](NC(=O)c2ccc(NCc3cnc4nc(N)[nH]c(=O)c4n3)cc2)C(=O)O)Cc2cn(nn2)CCCC[C@@H](C(=O)NCC(=O)N[C@@H](Cc2ccccc2)C(=O)N[C@@H](CCCCNC(=O)CN2CCN(CC(=O)O)CCN(CC(=O)O)CCN(CC(=O)O)CC2)C(=O)O)NC(=O)[C@@H](C)NC1=O` [compound 7327, folate-hshta-Gly-Phe-Lys(DOTA)] ({Pteroyl-γGlu}-[Pra][dH][dS][dH][dT][dA][Lys(N3)]GFK(DOTA)-OH; triazole 1-7), at human recombinant NEP, the “site of neprilysin cleavage” value was “cleaved at the amide bond between Gly and Phe”. Further, the NEP-mediated cleavage entry was “partial cleavage” at human recombinant NEP (1 nM and 0.1 nM NEP); “complete consumption of the peptide” at human recombinant NEP (10 nM NEP); “no cleavage” at human recombinant NEP (below 0.1 nM NEP). For the same molecule, the “in vitro Assay Data (NEP assay)” value at human recombinant NEP (Table 2) is “Cleavage of -G-F-K-”.

The term EC50 denotes the concentration needed to bring the measured effect to its halfway point.
